{
  "source": "ChEMBL document CHEMBL3853312",
  "about": "“Blocking Blood Flow to Solid Tumors by Destabilizing Tubulin: An Approach to Targeting Tumor Growth” (J Med Chem, 2016)",
  "type_in_all_cases": "ADME, organism-based",
  "key": {"[1]": {"experiment": "Drug excretion in iv dosed human urine assessed as unchanged compound administered as 30 mins infusion after 24 hrs by LC-MS/MS analysis", "conditions": "read-out: Drug excretion"}, "[2]": {"experiment": "Tmax in human at 250 mg, po qd regimen measured on day 7 post dose by LC-MS analysis", "conditions": "in vivo"}, "[3]": {"experiment": "Apparent half life in human at 11.5 to 42 mg/m'-2, iv dosed as 30 mins infusion by LC-MS/MS analysis", "conditions": "in vivo, read-out: t1/2(app)"}},
  "data": [
    {"smiles": "COc1cc(C(=O)c2ccc(-c3csc(NC(=O)[C@@H](N)C(C)C)n3)cc2-n2cncn2)cc(OC)c1OC", "values": [
      {"measurement": "dose excreted at 24 h", "setting": "[1]", "value": "< 1", "unit": "%"}
    ]},
    {"smiles": "COc1ccc(S(=O)(=O)Nc2cccnc2Nc2ccc(O)cc2)cc1", "note": "[ABT-751]", "values": [
      {"measurement": "Tmax", "setting": "[2]", "value": 120, "unit": "min"}
    ]},
    {"smiles": "COc1ccc(/C=C\\c2cc(OC)c(OC)c(OC)c2)cc1NC(=O)[C@@H](N)CO", "note": "[OMBRABULIN]", "values": [
      {"measurement": "half-life", "setting": "[3]", "value": 12, "unit": "min"}
    ]}
  ]
}
